# In patent publication US20090298781A1, “COMPOUNDS FOR THE INHIBITION OF APOPTOSIS” (CONSEJO SUPERIOR DE, priority 2005, published 2009):
# “And” between values parts separate entries of the source, which are not always exact repeats. Equal entries are not always repeated.
# Experiments:
# Assay type in all cases: cell-based
# [1] = tested on: Caspase activity, HeLa; assay: Caspase inhibition assay, HeLa; conditions: for inhibition at 1 µM / inhibition at 5 µM: Homo sapiens; for inhibition at 5 µM / % Caspase inhibition: 5 μM
# [2] = tested on: Caspase activity, U2-OS; assay: Caspase inhibition assay, U2-OS; conditions: for inhibition at 1 µM / inhibition at 5 µM: Homo sapiens, U2OS; for inhibition at 5 µM / % Caspase inhibition: 5 μM
# [3] = tested on: Caspase activity, U937 cell extracts; assay: Caspase inhibition assay, U937 cell extracts; conditions: for inhibition at 1 µM / inhibition at 5 µM: Homo sapiens, U-937; for inhibition at 5 µM / % Caspase inhibition: 5 μM
# Experimental: (§1) The time-dependent inhibition of caspase induced by the compounds described in this invention was analysed. […] Caspase activity was assayed using Saos-2 or U937 cell extracts and Ac-DEVD-afc (N-acetyl-Asp-Glu-Val-Asp-afc(7-amino-4-trifluoromethyl coumarin)) as substrate (20 μM). Caspase activity was continuously monitored by the liberation of fluorescent afc using a Cytofluor 4000 fluorimeter (excitation 400 nm; emission 508 nm) for 1 hour. The effect of the compounds on the caspase activity was expressed as the percentage of inhibition in the fluorescence signal of treated cells vs. the non-treated cells (control).
# [4] = tested on: U937 cell line; assay: MTT assay, toxicity (cell viability), U937
# Experimental: (§2) The MTT assay measures cell proliferation as well as reduction in cell viability when metabolic events lead to apoptosis or necrosis. It can also be used to assess the rate of survival of a given cell line when it is incubated in the presence of xenobiotics. The reduction of tetrazolium salts is accepted as a reliable way to analyse cell proliferation. The yellow tetrazolium MTT (3-(4,5-dimethylthiazolyl-2)-2,5-diphenyltetrazolium bromide) is reduced by metabolically active cells and results in the intracellular formation of purple formazan that can be spectrophotometrically measured after solubilisation with DMSO.
# (§3) The MTT assay was used in this invention to assess the toxicity of compounds at different concentrations. To analyse their potential impairment in cell viability, compounds were added to Saos-2 and U937 cell lines at different concentrations and incubated at different times. Results are expressed by percentage cell viability.
# [5] = tested on: Caspase activity, Saos-2 cell extracts; assay: Caspase inhibition assay, Saos-2 cell extracts; conditions: for inhibition at 1 µM: Homo sapiens; for % Caspase inhibition: 5 μM
# Experimental: as §1
# [6] = tested on: Saos-2 cell line; assay: MTT assay, toxicity (cell viability), Saos-2
# Experimental: as §2, §3
compound,measurement,setting,value
"NC(=O)CN(CCc1ccc(Cl)cc1Cl)C(=O)C1CC(=O)N(CCc2ccc(Cl)cc2Cl)CC(=O)N1CCC(c1ccccc1)c1ccccc1 (centres unmarked) [I.1, 1-[2-(2,4-Dichlorophenyl)ethyl]-4-(3,3-diphenylpropyl)-3,7-dioxo[1,4]-diazepane-5-carboxylic acid carbamoylmethyl-[2-(2,4-dichlorophenyl)-ethyl]amide]",inhibition at 1 µM,[1]; 24 h,29%
same,inhibition at 5 µM,[1]; 24 h,31%
same,inhibition at 1 µM,[1]; 48 h,75%
same,inhibition at 5 µM,[1]; 48 h,78%
same,inhibition at 1 µM,[1]; 72 h,34%
same,inhibition at 5 µM,[1]; 72 h,33%
same,inhibition at 1 µM,[2]; 24 h,0%
same,inhibition at 5 µM,[2]; 24 h,0%
same,inhibition at 1 µM,[2]; 48 h,58%
same,inhibition at 5 µM,[2]; 48 h,54%
same,inhibition at 1 µM,[2]; 72 h,1%
same,inhibition at 5 µM,[2]; 72 h,25%
same,inhibition at 1 µM,"[3]; U937, 24 h",0%
same,inhibition at 5 µM,"[3]; U937, 24 h",19%
same,inhibition at 1 µM,"[3]; U937, 48 h",14%
same,inhibition at 5 µM,"[3]; U937, 48 h",19%
same,inhibition at 1 µM,"[3]; U937, 72 h",12%
same,inhibition at 5 µM,"[3]; U937, 72 h",46%
same,% Cell viability,"[4]; U937, 24 h, 1 μM",100%
same,% Cell viability,"[4]; U937, 24 h, 5 μM",98% and 90%
same,% Cell viability,"[4]; U937, 24 h, 10 μM",95% and 87%
same,% Cell viability,"[4]; U937, 24 h, 25 μM",59%
same,% Cell viability,"[4]; U937, 24 h, 50 μM",27%
same,% Cell viability,"[4]; U937, 48 h, 1 μM",100%
same,% Cell viability,"[4]; U937, 48 h, 5 μM",97% and 94%
same,% Cell viability,"[4]; U937, 48 h, 10 μM",99% and 83%
same,% Cell viability,"[4]; U937, 72 h, 1 μM",98%
same,% Cell viability,"[4]; U937, 72 h, 5 μM",89%
same,% Cell viability,"[4]; U937, 72 h, 10 μM",67%
same,inhibition at 1 µM,"[5]; Saos-2, 24 h",21%
same,inhibition at 1 µM,"[5]; Saos-2, 48 h",17%
same,inhibition at 1 µM,"[5]; Saos-2, 72 h",4%
same,% Cell viability,"[6]; Saos-2, 24 h, 1 μM",99%
same,% Cell viability,"[6]; Saos-2, 24 h, 5 μM",100%
same,% Cell viability,"[6]; Saos-2, 24 h, 10 μM",96% and 100%
same,% Cell viability,"[6]; Saos-2, 24 h, 25 μM",63%
same,% Cell viability,"[6]; Saos-2, 24 h, 50 μM",19%
same,% Cell viability,"[6]; Saos-2, 48 h, 1 μM",100% and 97%
same,% Cell viability,"[6]; Saos-2, 48 h, 5 μM",100% and 94%
same,% Cell viability,"[6]; Saos-2, 48 h, 10 μM",100% and 97%
same,% Cell viability,"[6]; Saos-2, 48 h, 25 μM",19%
same,% Cell viability,"[6]; Saos-2, 48 h, 50 μM",11%
same,% Cell viability,"[6]; Saos-2, 72 h, 1 μM",89%
same,% Cell viability,"[6]; Saos-2, 72 h, 5 μM",88%
same,% Cell viability,"[6]; Saos-2, 72 h, 10 μM",80%
same,% Cell viability,"[6]; Saos-2, 72 h, 25 μM",8%
"NC(=O)CN(CC1CCCO1)C(=O)C1CC(=O)N(CCc2ccc(Cl)cc2Cl)CC(=O)N1CCC(c1ccccc1)c1ccccc1 (centres unmarked) [I.4, 1-[2-(2,4-Dichlorophenyl)ethyl]-4-(3,3-diphenylpropyl)-3,7-dioxo[1,4]diazepane-5-carboxylic acid carbamoylmethyl(tetrahydrofuran-2-ylmethyl)amide]",inhibition at 1 µM,[1]; 24 h,48%
same,inhibition at 1 µM,[1]; 48 h,14%
same,inhibition at 1 µM,[1]; 72 h,35%
same,inhibition at 1 µM,[2]; 24 h,0%
same,inhibition at 1 µM,[2]; 48 h,23%
same,inhibition at 1 µM,[2]; 72 h,54%
same,inhibition at 1 µM,"[3]; U937, 24 h",0%
same,inhibition at 1 µM,"[3]; U937, 48 h",12%
same,inhibition at 1 µM,"[3]; U937, 72 h",0%
same,% Cell viability,"[4]; U937, 24 h, 1 μM",100%
same,% Cell viability,"[4]; U937, 24 h, 5 μM",99%
same,% Cell viability,"[4]; U937, 24 h, 10 μM",87%
same,% Cell viability,"[4]; U937, 48 h, 1 μM",99%
same,% Cell viability,"[4]; U937, 48 h, 5 μM",94%
same,% Cell viability,"[4]; U937, 48 h, 10 μM",95%
same,inhibition at 1 µM,"[5]; Saos-2, 24 h",55%
same,inhibition at 1 µM,"[5]; Saos-2, 48 h",9%
same,% Cell viability,"[6]; Saos-2, 24 h, 1 μM",100%
same,% Cell viability,"[6]; Saos-2, 24 h, 5 μM",97%
same,% Cell viability,"[6]; Saos-2, 24 h, 10 μM",100%
same,% Cell viability,"[6]; Saos-2, 48 h, 1 μM",100%
same,% Cell viability,"[6]; Saos-2, 48 h, 5 μM",98%
same,% Cell viability,"[6]; Saos-2, 48 h, 10 μM",99%
"COc1ccccc1CCN(CC(N)=O)C(=O)C1CC(=O)N(CCc2ccc(Cl)cc2Cl)CC(=O)N1CCC(c1ccccc1)c1ccccc1 (centres unmarked) [I.7, 1-[2-(2,4-Dichlorophenyl)ethyl]-4-(3,3-diphenylpropyl)-3,7-dioxo[1,4]diazepane-5-carboxylic acid carbamoylmethy-[2-(2-methoxyphenyl)ethyl]amide]",% Caspase inhibition,[1]; 24 h,6%
same,% Caspase inhibition,[1]; 48 h,7%
same,% Caspase inhibition,[1]; 72 h,11%
same,% Caspase inhibition,[2]; 24 h,0%
same,% Caspase inhibition,[2]; 48 h,31%
same,% Caspase inhibition,[2]; 72 h,33%
same,% Caspase inhibition,"[3]; U937, 24 h",10%
same,% Caspase inhibition,"[3]; U937, 48 h",8%
same,% Caspase inhibition,"[3]; U937, 72 h",2%
same,% Cell viability,"[4]; U937, 24 h, 1 μM",99%
same,% Cell viability,"[4]; U937, 24 h, 5 μM",95%
same,% Cell viability,"[4]; U937, 24 h, 10 μM",93%
same,% Cell viability,"[4]; U937, 48 h, 1 μM",100%
same,% Cell viability,"[4]; U937, 48 h, 5 μM",100%
same,% Cell viability,"[4]; U937, 48 h, 10 μM",97%
same,% Caspase inhibition,"[5]; Saos-2, 24 h",0%
same,% Caspase inhibition,"[5]; Saos-2, 48 h",24%
same,% Cell viability,"[6]; Saos-2, 24 h, 1 μM",95%
same,% Cell viability,"[6]; Saos-2, 24 h, 5 μM",99%
same,% Cell viability,"[6]; Saos-2, 24 h, 10 μM",98%
same,% Cell viability,"[6]; Saos-2, 48 h, 1 μM",100%
same,% Cell viability,"[6]; Saos-2, 48 h, 5 μM",100%
same,% Cell viability,"[6]; Saos-2, 48 h, 10 μM",100%
"CCCCN(CC(N)=O)C(=O)C1CC(=O)N(CCc2ccc(Cl)cc2Cl)CC(=O)N1CCC(c1ccccc1)c1ccccc1 (centres unmarked) [I.11, 1-[2-(2,4-Dichloro-phenyl)ethyl]-4-(3,3-diphenylpropyl)-3,7-dioxo[1,4]diazepane-5-carboxylic acid butyl-carbamoylmethylamide]",inhibition at 5 µM,[1]; 24 h,14%
same,inhibition at 5 µM,[1]; 48 h,0%
same,inhibition at 5 µM,[1]; 72 h,62%
same,inhibition at 5 µM,[2]; 24 h,0%
same,inhibition at 5 µM,[2]; 48 h,31%
same,inhibition at 5 µM,[2]; 72 h,50%
same,inhibition at 5 µM,"[3]; U937, 24 h",11%
same,inhibition at 5 µM,"[3]; U937, 48 h",0%
same,inhibition at 5 µM,"[3]; U937, 72 h",4%
same,% Cell viability,"[4]; U937, 24 h, 1 μM",100%
same,% Cell viability,"[4]; U937, 24 h, 5 μM",95%
same,% Cell viability,"[4]; U937, 24 h, 10 μM",79%
same,% Cell viability,"[4]; U937, 48 h, 1 μM",98%
same,% Cell viability,"[4]; U937, 48 h, 5 μM",89%
same,% Cell viability,"[4]; U937, 48 h, 10 μM",75%
same,% Cell viability,"[6]; Saos-2, 24 h, 1 μM",100%
same,% Cell viability,"[6]; Saos-2, 24 h, 5 μM",98%
same,% Cell viability,"[6]; Saos-2, 24 h, 10 μM",82%
same,% Cell viability,"[6]; Saos-2, 48 h, 1 μM",100%
same,% Cell viability,"[6]; Saos-2, 48 h, 5 μM",91%
same,% Cell viability,"[6]; Saos-2, 48 h, 10 μM",74%
